# Columns and labels:
# [1] = system: SAH rats; experiment: Secondary epilepsy in SAH rats (Racine score, seizures); type: in vivo, rat; conditions: within 24 hours after SAH
# Method: The experimental materials, grouping, modeling method and administration protocol were the same as those in the effect embodiment 1, and the seizures of rats in each group were observed within 24 hours after SAH.
# [2] = system: PC12 cells; experiment: Oxyhemoglobin-damaged PC12 cells, MTT; type: cell-based; conditions: α-asarone emulsion 1, 5, 10, 25, 50 μM pre-incubated 2 hours, 6 μM oxyhemoglobin 24 hours
# Method: PC12 cells in the logarithmic phase of growth were seeded in a 96-well plate (1×10^4 cells/100 μL/well) with the marginal wells filled with sterile PBS, and cultured with complete culture medium at 37° C. with 5% CO2 for 24 hours until the cells completely adhered to the wall. The supernatant was discarded followed by oxyhemoglobin incubation at 37° C. with 5% CO2 for 24 hours with final concentrations of 0 μM, 4 μM, 6 μM, 8 μM and 10 μM, respectively. Subsequently, 10 μL MTT (5 mg/mL) was added into each well and incubated at 37° C. with 5% CO2 for 4 hours. Then, the supernatant was discarded, the formazan was dissolved with 100 μL DMSO, and the optical density (OD) was gauged at 570 nm by a microplate reader after incubation at 37° C. for 15 minutes (500 r/min) to calculate the cell viability. According to the formula “fold of cell abnormal proliferation=[(average absorbance value of the experimental group−average absorbance value of zero-adjusting well)/(average absorbance value of the control group−average absorbance value of zero-adjusting well)”, 6 μM oxyhemoglobin was screened out for following in vitro pharmacodynamic experiment since it produced a maximum of 1.5-fold abnormal cell proliferation compared to the control group. […]
# [3] = system: ICH rats; experiment: Brain water content and blood-brain barrier permeability (Evans blue), ICH rats; type: in vivo, rat; conditions: 24 hours after operation, group M, medium-dose intravenous, vs model group
# Method: After completing the evaluation of 24-hour short-term neurological function, 4% Evans blue solution (2.5 mL/kg) was injected into the right caudal vein of the rats. After circulated for 1 hour, the rats were deeply anesthetized and transcardinally perfused with 100 mL of normal saline to collect the rats' brain. The whole brain was divided into four groups: left hemisphere (LH), right hemisphere (RH), cerebellum (Cb) and brainstem (BS). The left and right hemispheres were coronally divided into two parts, one part was immediately weighed (wet weight) with a balance with an accuracy of 0.1 mg, dried in an oven at 105° C. for 24 hours and weighed again (dry weight). The brain water content was calculated as [(wet weight−dry weight)/wet weight]×100%. The other part of the brain tissue was weighed (wet weight) and emerged into 10 times the volume of pure formamide, incubated at 60° C. for 48 hours, centrifuged at 25° C. for 30 min (10,000 rpm/min). The Evans blue in the supernatant was measured at 622 nm by a UV spectrophotometry, and calculated with a standard curve for quantification. The amount of Evans blue was expressed as μg/g of brain tissue (wet weight).
# [4] = system: SAH rats; experiment: Morris water maze and brain tissue atrophy of SAH rats in recovery phase; type: in vivo, rat
# Method: Morris water maze was used to evaluate the long-term spatial perception and memory ability of rats in each group, and was performed after the survival observation, i.e., 15 to 19 days after SAH. The water maze was a circular pool with a diameter of 150 cm and a depth of 60 cm. Before the experiment, warm water (24±2)° C. was filled to a depth of 30 cm and colored black with ink. The pool was equally divided into four quadrants, and different signs were pasted on the walls of different quadrants to indicate the difference. A transparent platform with a diameter of 10 cm and a height of 28 cm was placed in the center of one quadrant, and was 2 cm beneath the water. Rats were released from the designated quadrant according to the experimental guidelines. On day 1 to 4, rats were successively released into water from four corresponding quadrants with a 10-minute interval. If the rat found the platform within 60 seconds, it was allowed to remain there for 10 seconds; if not, it was guided to the platform with a rod and allowed to stand there for 10 seconds. On day 5, the platform was removed and the rats were allowed to swim freely for 60 seconds. The escape latency, swimming speed and dwelling time on the target quadrant were recorded using a computerized tracking system (Noldus Ethovision, Tacoma, WA, USA).
# [5] = system: ICH rats; experiment: Glutamate and GABA content in brain tissue, ICH rats; type: in vivo, rat; conditions: 12 to 24 hours after operation, group M
# Method: The rats were deeply anesthetized, and decapitated to collect the brain at 12-24 hours after modeling. Then about 60 to 120 mg of brain cortex on the hemorrhagic side were weighed, homogenized with 10 times the volume of ice-cold centrifuge buffer for biochemical detection, homogenized for 10 min in an ice bath, and centrifuged at 4° C. for 30 minutes (14,000 rpm/min). The contents of glutamate and GABA in the supernatant were detected according to the instructions of glutamate content detection kit and rat GABA Elisa kit.
# [6] = group H, α-asarone emulsion injection 30 mg/kg tail vein
# [7] = group L, α-asarone emulsion injection 7.5 mg/kg tail vein
# [8] = group M, α-asarone emulsion injection 15 mg/kg tail vein
# [9] = group O, α-asarone emulsion oral administration 40 mg/kg
structure (smiles),measurement,setting,value
"C/C=C/c1cc(OC)c(OC)cc1OC [α-asarone, trans-2,4,5-trimethoxy-1-propenylbenzene]",incidence of secondary epilepsy,[1],significantly reduce
same,Clonic seizures (%),[1]; [6],8.0%
same,Racine score,[1]; [6],0.73 ± 1.44
same,Tonic seizures (%),[1]; [6],6.7%
same,Clonic seizures (%),[1]; [7],6.7%
same,Racine score,[1]; [7],0.53 ± 1.46
same,Tonic seizures (%),[1]; [7],6.7%
same,Clonic seizures (%),[1]; [8],5.6%
same,Racine score,[1]; [8],0.44 ± 1.34
same,Tonic seizures (%),[1]; [8],5.6%
same,Clonic seizures (%),[1]; [9],15.4%
same,Racine score,[1]; [9],0.77 ± 1.59
same,Tonic seizures (%),[1]; [9],7.7%
same,abnormal increase of cell vitality caused by oxyhemoglobin,[2],significantly reduced
same,Evans blue content,[3],significantly reduce
same,brain water content,[3],significantly reduce
same,escape latency during the training period,"[4]; Morris water maze, 15 to 19 days after SAH, group M, vs group S",significantly decreased
same,swimming speed,"[4]; Morris water maze, group M vs group S (P<0.05)",significantly faster
same,"time in the target quadrant, spatial probe test","[4]; Morris water maze, group M, vs group S",notably prolonged
same,brain atrophy,"[4]; SAH rats after long-term administration, group M",significantly rescued
same,GABA content in the hemorrhagic brain tissue,[5],significantly reduce
same,glutamate content in the hemorrhagic brain tissue,[5],significantly reduce
